{"source": "patent US20130237590A1", "about": "“ASSESSING THYROID NEOPLASMS” (MAYO FOUNDATION FOR MEDICAL EDUCATION AND RESEARCH, priority 2010, published 2013)", "key": {"PPARγ [1]": {"tested_on": "PPARγ", "test": "PPRE luciferase reporter assay in WRO cells", "type": "cell-based", "procedure": "(§1) Cells (0.3×10^6 cells/well) in six well plates were transfected using LT-1 reagent (Mirus, Madison Wis.) with 10 ng of Renilla (Promega, Madison, Wis.) and […] of PPRE-Aco-Luc reporter in triplicate. After 24 hours, cells were lysed and assayed using the dual luciferase kit (Promega). Data was calculated as a ratio of the luciferase to renilla expression and plotted as fold-change compared to vector. To test the effect of GW9662 on PPARγ activity, cells were treated 18 hours post transfection with either 2 μL DMSO or 10 μM GW9662 (a potent antagonist of PPARγ) for 24 hours prior to harvest and assay."}, "miR-122 [2]": {"tested_on": "miR-122", "test": "miR-122 quantitation by quantitative RT-PCR in WRO cells", "type": "cell-based", "details": "WRO-vector cells treated with 10 μM GW9662 for 24 hours", "procedure": "(§2) To generate stable lines, cells were seeded at 1×10^6 cells per 100 mm petri dish and transfected 24 hours later in multiples of six, with 10 μg each of vector or PPFP using LT-1 (Minus Bio, Madison, Wis.). For the generation of DN-PPARγ and miR stable cells, the DN-PPARγ construct (Reddi et al., Expression of the PAX8/PPARγ Fusion Protein Is Associated with Decreased Neovascularization In Vivo: Impact on Tumorigenesis and Disease Prognosis, Genes and Cancer, (2010)), mmu-Null, and mmu-miR122-EGFP constructs (Cellbio labs) were used. After 72 hours, WRO-Vector, WRO-PPFP, WRO-DN-PPARγ, FTC-Vector, and FTC−PPFP cells were obtained by selection in media containing 400 μg/mL of G418 (Invitrogen) with media changes every 72 hours. WRO-miR-Null and WRO-miR-122 cells were generated using 2.5 μg/mL puromycin selection. Pools of cells were harvested and analyzed for mRNA and microRNA expression by quantitative RT-PCR and for polypeptide expression by Western blotting.\n(§3) RNA from each group of cells was isolated using TriZol Reagent (Invitrogen). […] PAX8/PPARγ fusion gene was detected by PCR using 5 μL of cDNA and a sense primer from exon 7 of PAX8 (5′-CGCGGATCCGCATT-GACTCACAGAGCA-3; SEQ ID NO:1; see, also, GenBank Accession No. NM_013953 and GI No.81295803) and antisense primer from exon 1 of PPARγ1 (5′-[…]-3; SEQ ID NO:2; GenBank Accession No. NM_138712 and GI No. 116284369). […]"}, "miR-122 [3]": {"tested_on": "miR-122", "test": "miR-122 quantitation in WRO xenografts", "type": "in vivo, athymic nude mice", "procedure": "RNA from each group of cells was isolated using TriZol Reagent (Invitrogen). RNA (1 μg) was reverse transcribed with oligo-dT primers using Message Sensor RT kit (Ambion, Austin, Tex.). PAX8/PPARγ fusion gene was detected by PCR using 5 μL of cDNA and a sense primer from exon 7 of PAX8 (5′-CGCGGATCCGCATT-GACTCACAGAGCA-3; SEQ ID NO:1; see, also, GenBank Accession No. NM_013953 and GI No.81295803) and antisense primer from exon 1 of PPARγ1 (5′-[…]-3; SEQ ID NO:2; GenBank Accession No. NM_138712 and GI No. 116284369). Glyceraldehyde 3-phosphate dehydrogenase (GAPDH) was amplified using kit primers. Xenografts were harvested at weeks 1 and 2 post induction and homogenized in T-PER (Pierce, Rockford, Ill.). RNA was extracted, and RT-PCR was performed for PPFP and GAPDH. Annealing temperature for PPFP and GAPDH was 55° C. for 30 seconds. miR-122 status was verified using TaqMan microRNA assays (Applied Biosystems) as per the manufacturer's instructions.\n(§4) Stable cells (10^7) were resuspended in 100 μL of growth media and injected subcutaneously into both flanks of 5 week-old athymic nude mice (Fox1^nu/nu, Harlan, Indianapolis, Ind.). At least three mice were injected per group. Tumor size was determined weekly by measuring tumor length (L), width (W), and height (H) using vernier calipers (Vtumor=0.5236 LWH)."}, "ADAM-17 [4]": {"tested_on": "ADAM-17", "test": "ADAM-17 transcript levels in immortalized thyrocytes", "type": "cell-based", "details": "immortalized thyrocytes (N-Thy-ori cells) expressing PPFP"}, "CD-31": {"tested_on": "CD-31", "test": "microvessel density by CD-31 staining of WRO xenografts", "type": "in vivo, athymic nude mice", "details": "WRO xenografts compared to control xenografts", "procedure": "Four tumors per group were formalin-fixed, paraffin-embedded, and individual sections stained with CD-31 (sc-1506-R, Santa Cruz, 1:200 dilution) specific antibody for 30-60 minutes and counterstained with hematoxylin. Antigen retrieval was done in EDTA at […] for 30 minutes after deparaffinization. Sections were blocked with peroxidase for 5 minutes and protein for 5 minutes. Antibody staining was visualized using Dako Envision plus System for 15 minutes followed by DAB chromogen for 10 minutes. Separate tumor sections were stained with hematoxylin and eosin to visualize tumor histology.\nStained slides were scanned using the Hamamatsu NanoZoomer (Bacus Laboratories, Inc., Chicago, Ill.). Digital images composed of multiple tiles (4096×64 pixel) were captured at 20× magnification. Image analysis was conducted as described elsewhere (Monahan et al., Endocrinology 150:4386-4394 (2009)). For each tumor section, the relative signal intensity from 10 randomly chosen fields (205×300 pixel) was quantified by histogram analysis (Adobe Photoshop). Data was expressed as signal intensity (signal pixel count divided by total image pixel count)."}, "miR-122 [5]": {"tested_on": "miR-122", "test": "miR-122 quantitation in FTC-133 cells", "type": "cell-based", "procedure": "as §2, §3"}, "KTC-3 cells": {"tested_on": "KTC-3 cells", "test": "in vivo xenograft tumor formation assay, KTC-3 anaplastic thyroid cancer cells", "design": "species or system athymic nude mice", "details": "KTC-3-PPFP anaplastic thyroid cancer cells; in 6 weeks", "procedure": "(§5) To generate stable lines, cells were seeded at 1×10^6 cells per 100 mm petri dish and transfected 24 hours later in multiples of six, with 10 μg each of vector or PPFP using LT-1 (Minus Bio, Madison, Wis.). After 72 hours, ARO-Vector, ARO-PPFP, DRO-Vector, DRO-PPFP, FRO-Vector, FRO-PPFP, KTC-3-Vector, and KTC-3-PPFP cells were obtained by selection in media containing 400 μg/mL of G418 (Invitrogen) with media changes every 72 hours. Pools of cells were harvested and analyzed for PPFP expression by reverse transcriptase PCR.\nas §4, with “(Fox1^nu/nu” for “(Fox1^nu/nu,”"}, "FRO cells": {"tested_on": "FRO cells", "test": "in vivo xenograft tumor formation assay, FRO anaplastic thyroid cancer cells", "design": "species or system athymic nude mice", "details": "FRO-PPFP anaplastic thyroid cancer cells; in 5 weeks", "procedure": "as §5\nas §4, with “(Fox1^nu/nu” for “(Fox1^nu/nu,”"}, "WRO cells [6]": {"tested_on": "WRO cells", "test": "in vitro cell growth of stable WRO cells (absorbance at 490 nm)", "type": "cell-based", "details": "stable WRO cells compared to WRO-vector cells; 72 hours", "procedure": "as §2"}, "DRO cells": {"tested_on": "DRO cells", "test": "in vivo xenograft tumor formation assay, DRO melanoma cells", "design": "species or system athymic nude mice", "details": "DRO-PPFP melanoma cells; by 6 weeks", "procedure": "as §5\nas §4, with “(Fox1^nu/nu” for “(Fox1^nu/nu,”"}, "PPARγ [7]": {"tested_on": "PPARγ", "test": "PPRE luciferase reporter assay in FTC-133 cells", "type": "cell-based", "details": "FTC-133-PPFP cells", "procedure": "as §1"}, "FTC-133 cells": {"tested_on": "FTC-133 cells", "test": "in vivo xenograft tumor formation assay, FTC-133 stable cells", "design": "species or system athymic nude mice", "details": "FTC-133-PPFP cells (PTEN-null); by 4 weeks; vs vector only", "procedure": "as §4"}, "ARO cells": {"tested_on": "ARO cells", "test": "in vivo xenograft tumor formation assay, ARO colon cancer cells", "design": "species or system athymic nude mice", "details": "ARO-PPFP colon cancer cells; by 4 weeks", "procedure": "as §5\nas §4, with “(Fox1^nu/nu” for “(Fox1^nu/nu,”"}, "ADAM-17 [8]": {"tested_on": "ADAM-17", "test": "ADAM-17 transcript levels in WRO cells", "type": "cell-based", "details": "stable WRO cells"}, "WRO cells [9]": {"tested_on": "WRO cells", "test": "in vivo xenograft tumor formation assay, WRO stable cells", "design": "species or system athymic nude mice", "details": "WRO-PPFP cells, by 5 weeks", "procedure": "as §4"}}, "data": [{"molecule": "O=C(Nc1ccccc1)c1cc([N+](=O)[O-])ccc1Cl", "note": "[GW9662, reference compound]", "values": [{"measurement": "PPRE activity", "setting": "PPARγ [1]; WRO-vector cells treated with 10 μM GW9662 for 24 hours", "value": "significant decrease in PPRE activity"}, {"measurement": "miR-122 expression", "setting": "miR-122 [2]", "value": "not accompanied by increased miR-122 expression"}]}, {"molecule": "PPFP: PAX8/PPARγ fusion protein, constitutively expressed from a CMV promoter construct in stably transfected cancer cell lines", "values": [{"measurement": "increase in miR-122 expression", "setting": "miR-122 [3]", "value": "40.0 (p < 0.054) fold"}, {"measurement": "reduction of ADAM-17 mRNA expression", "setting": "ADAM-17 [4]", "value": "not"}, {"measurement": "decrease in microvessel density (CD-31 staining)", "setting": "CD-31", "value": 2.1, "unit": "fold"}, {"measurement": "miR-122 expression", "setting": "miR-122 [5]; FTC-133(+PPFP) cells (PTEN-null)", "value": "did not increase miR-122 expression"}, {"measurement": "inhibition of xenograft tumor progression", "setting": "KTC-3 cells", "value": 77.2, "unit": "%"}, {"measurement": "inhibition of xenograft tumor progression", "setting": "FRO cells", "value": 80.1, "unit": "%"}, {"measurement": "decrease (inhibition) of in vitro cell growth", "setting": "WRO cells [6]", "value": 19, "unit": "%"}, {"measurement": "inhibition of xenograft tumor progression", "setting": "DRO cells", "value": 57.5, "unit": "%"}, {"measurement": "inhibition of activation of PPRE", "setting": "PPARγ [7]", "value": 69, "unit": "%"}, {"measurement": "inhibition of PPARγ activity (activation of PPRE)", "setting": "PPARγ [1]; stable WRO cells vs vector", "value": 29, "unit": "%"}, {"measurement": "inhibition of xenograft tumor progression", "setting": "FTC-133 cells", "value": "< 2", "unit": "fold"}, {"measurement": "inhibition of xenograft tumor progression", "setting": "ARO cells", "value": 39.5, "unit": "%"}, {"measurement": "reduction of ADAM-17 mRNA expression", "setting": "ADAM-17 [8]", "value": 50, "unit": "%"}, {"measurement": "inhibition of xenograft tumor progression", "setting": "WRO cells [9]", "value": 72, "unit": "%"}, {"measurement": "inhibition of xenograft tumor progression", "setting": "WRO cells [9]; vs vector only", "value": 9, "unit": "fold"}]}, {"molecule": "PTEN: PTEN transiently expressed from an expression plasmid in FTC-133 cells [reference compound]", "values": [{"measurement": "increase in miR-122 expression", "setting": "miR-122 [5]; transient expression of PTEN in FTC-133(+PPFP) cells vs vector only cells", "value": 77, "unit": "fold"}]}]}
